Publication PMC6556873, “Rapid Covalent-Probe Discovery by Electrophile-Fragment Screening” (Journal of the American Chemical Society, 2019)
Read-outs that look alike come from different tables or passages of the source.

Legend:
NUDT7 = target: T1, NUDT7 (Homo sapiens, UniProt P0C024); set-up: Intact protein LC/MS covalent labelling, fragments in pools of five, 200 uM each, 4 °C; details: 24 h, 4 °C, pool of five; 200 µM; covalent
T1 construct: residues 14-235, E. coli, pNIC28-Bsa4, N-terminal His6 tag removed by TEV, construct 26672 Da

BSA = target: T2, BSA (Bos taurus, UniProt P02769); set-up: Intact protein LC/MS covalent labelling, fragments in pools of five, 200 uM each, 4 °C; details: 24 h, 4 °C, pool of five; 200 µM; covalent
T2 construct: gene ALB

PCAF = target: T3, PCAF (Homo sapiens, UniProt Q92831); set-up: Intact protein LC/MS covalent labelling, fragments in pools of five, 200 uM each, 4 °C; details: 24 h, 4 °C, pool of five; 200 µM; covalent
T3 construct: gene KAT2B

OTUB2 (OTUB2A) = target: T4, OTUB2 (OTUB2A) (Homo sapiens, UniProt Q96DC9); set-up: Intact protein LC/MS covalent labelling, fragments in pools of five, 200 uM each, 4 °C; details: 24 h, 4 °C, pool of five; 200 µM; covalent
T4 construct: full length residues 1-234, E. coli BL21(DE3)-R3, His tag removed by TEV, construct 27312 Da
T4 sequence (Q96DC9 1-234): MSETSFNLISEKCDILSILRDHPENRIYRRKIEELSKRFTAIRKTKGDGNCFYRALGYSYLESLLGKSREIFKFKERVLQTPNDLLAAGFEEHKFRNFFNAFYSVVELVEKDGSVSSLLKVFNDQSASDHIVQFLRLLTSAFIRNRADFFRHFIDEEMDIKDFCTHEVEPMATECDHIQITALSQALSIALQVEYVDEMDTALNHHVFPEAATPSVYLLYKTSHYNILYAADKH

in vitro [1] = assay: in vitro; set-up: species or system HB2, HEK293; details: human, ccd841 cells
in vitro [2] = assay: in vitro; set-up: species or system HB2, CCD841; details: human, hek293 cells
in vitro [3] = assay: in vitro; set-up: species or system CCD841, HEK293; details: human, hb2 cells, read-out: HB-2 Cells Viability (%)

T2 sequence (P02769 whole entry, the tested form may be a part): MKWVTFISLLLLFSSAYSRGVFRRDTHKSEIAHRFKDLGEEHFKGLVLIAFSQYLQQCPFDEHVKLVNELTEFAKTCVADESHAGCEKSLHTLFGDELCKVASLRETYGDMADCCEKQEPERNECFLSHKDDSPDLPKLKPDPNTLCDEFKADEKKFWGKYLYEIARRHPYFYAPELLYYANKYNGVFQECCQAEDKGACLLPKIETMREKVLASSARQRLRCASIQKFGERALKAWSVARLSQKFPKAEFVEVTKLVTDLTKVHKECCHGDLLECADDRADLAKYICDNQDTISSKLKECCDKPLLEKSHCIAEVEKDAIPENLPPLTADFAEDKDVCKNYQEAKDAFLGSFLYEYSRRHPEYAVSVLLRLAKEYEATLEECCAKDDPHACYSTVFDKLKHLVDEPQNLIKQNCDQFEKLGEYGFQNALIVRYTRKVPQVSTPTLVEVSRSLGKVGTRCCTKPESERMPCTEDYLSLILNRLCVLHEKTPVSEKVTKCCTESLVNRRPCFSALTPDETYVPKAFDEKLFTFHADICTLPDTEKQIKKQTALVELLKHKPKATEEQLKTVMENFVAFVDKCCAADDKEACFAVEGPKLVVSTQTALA
T1 sequence (P0C024 14-235): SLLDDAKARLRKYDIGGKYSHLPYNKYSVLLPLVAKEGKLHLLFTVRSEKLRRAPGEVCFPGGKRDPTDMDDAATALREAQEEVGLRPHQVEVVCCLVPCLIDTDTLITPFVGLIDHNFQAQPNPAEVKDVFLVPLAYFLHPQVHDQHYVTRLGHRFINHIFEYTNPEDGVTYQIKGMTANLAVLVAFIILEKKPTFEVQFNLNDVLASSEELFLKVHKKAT
T3 sequence (Q92831 whole entry, the tested form may be a part): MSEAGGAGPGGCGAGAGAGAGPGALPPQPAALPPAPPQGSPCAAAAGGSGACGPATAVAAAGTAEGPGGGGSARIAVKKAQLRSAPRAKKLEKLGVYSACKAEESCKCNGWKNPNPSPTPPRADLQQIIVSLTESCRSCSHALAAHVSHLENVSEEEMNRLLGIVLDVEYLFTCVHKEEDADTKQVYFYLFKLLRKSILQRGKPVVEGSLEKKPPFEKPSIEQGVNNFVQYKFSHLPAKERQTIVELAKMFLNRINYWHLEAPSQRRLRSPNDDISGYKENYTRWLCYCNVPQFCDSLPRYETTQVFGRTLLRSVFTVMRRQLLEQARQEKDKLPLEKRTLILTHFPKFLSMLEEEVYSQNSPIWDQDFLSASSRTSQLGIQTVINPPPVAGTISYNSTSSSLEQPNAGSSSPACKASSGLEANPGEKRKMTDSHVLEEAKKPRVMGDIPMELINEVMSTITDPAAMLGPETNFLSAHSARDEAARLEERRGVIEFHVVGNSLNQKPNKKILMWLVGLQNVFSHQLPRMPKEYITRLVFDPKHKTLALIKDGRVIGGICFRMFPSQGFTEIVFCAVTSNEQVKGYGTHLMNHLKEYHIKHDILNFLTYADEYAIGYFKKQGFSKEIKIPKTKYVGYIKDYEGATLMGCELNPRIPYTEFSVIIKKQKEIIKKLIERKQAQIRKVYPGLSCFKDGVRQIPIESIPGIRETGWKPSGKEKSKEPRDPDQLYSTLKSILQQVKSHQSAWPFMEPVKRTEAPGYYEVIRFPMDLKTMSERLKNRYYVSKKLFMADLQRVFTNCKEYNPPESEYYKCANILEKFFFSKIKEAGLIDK

## CN(Cc1ccccc1Br)C(=O)CCl [PCM-0102592]
NUDT7
  NUDT7: 0.14
BSA
  BSA: 0
PCAF
  PCAF: 0
OTUB2 (OTUB2A)
  OTUB2: 0.12
In vitro [1]
  viability at 48 h, 10 µM: 71.9%
In vitro [2]
  viability at 48 h, 10 µM: 39%
In vitro [3]
  viability at 48 h, 10 µM: 27.4%

## C=CC(=O)N1CCC(C(=O)N2CCN(C(C)=O)CC2)CC1 [PCM-0102593]
NUDT7
  NUDT7: 0
BSA
  BSA: 0
PCAF
  PCAF: 0
OTUB2 (OTUB2A)
  OTUB2: 0
In vitro [1]
  viability at 48 h, 10 µM: 111%
In vitro [2]
  viability at 48 h, 10 µM: 105%
In vitro [3]
  viability at 48 h, 10 µM: 98.3%

## CCN(C(=O)CCl)C1CC1 [PCM-0102594]
NUDT7
  NUDT7: 0
BSA
  BSA: 0
PCAF
  PCAF: 0
OTUB2 (OTUB2A)
  OTUB2: 0
In vitro [1]
  viability at 48 h, 10 µM: 95.2%
In vitro [2]
  viability at 48 h, 10 µM: 92.7%
In vitro [3]
  viability at 48 h, 10 µM: 100%

## C=CC(=O)N1CCC(NC(=O)c2ccncc2)CC1 [PCM-0102595]
NUDT7
  NUDT7: 0
BSA
  BSA: 0
PCAF
  PCAF: 0
OTUB2 (OTUB2A)
  OTUB2: 0
In vitro [1]
  viability at 48 h, 10 µM: 102%
In vitro [2]
  viability at 48 h, 10 µM: 94.7%
In vitro [3]
  viability at 48 h, 10 µM: 102%

## O=C(CCl)NCC1CCOC1 (stereo not drawn) [PCM-0102596]
NUDT7
  NUDT7: 0
BSA
  BSA: 0
PCAF
  PCAF: 0
OTUB2 (OTUB2A)
  OTUB2: 0.13
In vitro [1]
  viability at 48 h, 10 µM: 90.8%
In vitro [2]
  viability at 48 h, 10 µM: 112%
In vitro [3]
  viability at 48 h, 10 µM: 93.6%

## CC(NC(=O)CCl)C(=O)N1CCCCC1 (stereo not drawn) [PCM-0102598]
NUDT7
  NUDT7: 0
BSA
  BSA: 0
PCAF
  PCAF: 0
OTUB2 (OTUB2A)
  OTUB2: 0
In vitro [1]
  viability at 48 h, 10 µM: 99.9%
In vitro [2]
  viability at 48 h, 10 µM: 98.7%
In vitro [3]
  viability at 48 h, 10 µM: 101%

## C=CC(=O)N1CC(c2nc(C)no2)C1 [PCM-0102599]
NUDT7
  NUDT7: 0
BSA
  BSA: 0
PCAF
  PCAF: 0
OTUB2 (OTUB2A)
  OTUB2: 0
In vitro [1]
  viability at 48 h, 10 µM: 102%
In vitro [2]
  viability at 48 h, 10 µM: 90.9%
In vitro [3]
  viability at 48 h, 10 µM: 108%

## C=CC(=O)N1CCCC2(CCS(=O)(=O)C2)C1 (stereo not drawn) [PCM-0102600]
NUDT7
  NUDT7: 0.05
BSA
  BSA: 0
PCAF
  PCAF: 0
OTUB2 (OTUB2A)
  OTUB2: 0
In vitro [1]
  viability at 48 h, 10 µM: 121%
In vitro [2]
  viability at 48 h, 10 µM: 98.9%
In vitro [3]
  viability at 48 h, 10 µM: 107%

## C=CC(=O)NC1CCN(c2ccc(C(F)(F)F)cn2)CC1 [PCM-0102602]
NUDT7
  NUDT7: 0
BSA
  BSA: 0
PCAF
  PCAF: 0
OTUB2 (OTUB2A)
  OTUB2: 0
In vitro [1]
  viability at 48 h, 10 µM: 94.7%
In vitro [2]
  viability at 48 h, 10 µM: 62.4%
In vitro [3]
  viability at 48 h, 10 µM: 103%

## C=CC(=O)N1CC(NC(=O)C(F)(F)F)CCC1C(F)(F)F (stereo not drawn) [PCM-0102603]
NUDT7
  NUDT7: 0
BSA
  BSA: 0
PCAF
  PCAF: 0
OTUB2 (OTUB2A)
  OTUB2: 0
In vitro [1]
  viability at 48 h, 10 µM: 104%
In vitro [2]
  viability at 48 h, 10 µM: 110%
In vitro [3]
  viability at 48 h, 10 µM: 97.9%

## C=CC(=O)N1CCCC(c2nnc3ccc(C(F)(F)F)cn23)C1 (stereo not drawn) [PCM-0102606]
NUDT7
  NUDT7: 0
BSA
  BSA: 0
PCAF
  PCAF: 0
OTUB2 (OTUB2A)
  OTUB2: 0
In vitro [1]
  viability at 48 h, 10 µM: 111%
In vitro [2]
  viability at 48 h, 10 µM: 126%
In vitro [3]
  viability at 48 h, 10 µM: 107%

## C=CC(=O)N1CCCC(NC(=O)c2ccc(C(F)(F)F)cc2)C1 (stereo not drawn) [PCM-0102607]
NUDT7
  NUDT7: 0
BSA
  BSA: 0
PCAF
  PCAF: 0
OTUB2 (OTUB2A)
  OTUB2: 0
In vitro [1]
  viability at 48 h, 10 µM: 100%
In vitro [2]
  viability at 48 h, 10 µM: 114%
In vitro [3]
  viability at 48 h, 10 µM: 98.9%

## C=CC(=O)N1CCCC(CC(=O)OC(C)(C)C)CC1 (stereo not drawn) [PCM-0102609]
NUDT7
  NUDT7: 0
BSA
  BSA: 0
PCAF
  PCAF: 0
OTUB2 (OTUB2A)
  OTUB2: 0.06
In vitro [1]
  viability at 48 h, 10 µM: 104%
In vitro [2]
  viability at 48 h, 10 µM: 90.6%
In vitro [3]
  viability at 48 h, 10 µM: 106%

## O=C(CCl)Nc1ccc(N2CCCCC2)cc1 [PCM-0102612]
NUDT7
  NUDT7: 0
BSA
  BSA: 0
PCAF
  PCAF: 0
OTUB2 (OTUB2A)
  OTUB2: 0.37
In vitro [1]
  viability at 48 h, 10 µM: 55.2%
In vitro [2]
  viability at 48 h, 10 µM: 57.2%
In vitro [3]
  viability at 48 h, 10 µM: 41.7%

## O=C(CCl)NC(=O)Nc1ccc2c(c1)OCCO2 [PCM-0102614]
NUDT7
  NUDT7: 0.23
BSA
  BSA: 0
PCAF
  PCAF: 0
OTUB2 (OTUB2A)
  OTUB2: 0.27
In vitro [1]
  viability at 48 h, 10 µM: 83.6%
In vitro [2]
  viability at 48 h, 10 µM: 80.3%
In vitro [3]
  viability at 48 h, 10 µM: 88.7%

## O=C(CCl)N1CCOC(c2ccc(F)cc2)C1 (stereo not drawn) [PCM-0102615]
NUDT7
  NUDT7: 0
BSA
  BSA: 0
PCAF
  PCAF: 0
OTUB2 (OTUB2A)
  OTUB2: 0
In vitro [1]
  viability at 48 h, 10 µM: 12.6%
In vitro [2]
  viability at 48 h, 10 µM: 4.8%
In vitro [3]
  viability at 48 h, 10 µM: 2%

## O=C(CCl)NC1CCN(C(=O)c2ccco2)CC1 [PCM-0102619]
NUDT7
  NUDT7: 0
BSA
  BSA: 0
PCAF
  PCAF: 0
OTUB2 (OTUB2A)
  OTUB2: 0.1
In vitro [1]
  viability at 48 h, 10 µM: 101%
In vitro [2]
  viability at 48 h, 10 µM: 84.6%
In vitro [3]
  viability at 48 h, 10 µM: 105%

## NC(=O)c1c(NC(=O)CCl)sc2c1CCCC2 [PCM-0102620]
NUDT7
  NUDT7: 0.36
BSA
  BSA: 0
PCAF
  PCAF: 0
OTUB2 (OTUB2A)
  OTUB2: 0.16
In vitro [1]
  viability at 48 h, 10 µM: 73.1%
In vitro [2]
  viability at 48 h, 10 µM: 29.6%
In vitro [3]
  viability at 48 h, 10 µM: 42.3%

## C=CC(=O)N1CCn2c(cc3ccccc32)C1 [PCM-0102621]
NUDT7
  NUDT7: 0
BSA
  BSA: 0
PCAF
  PCAF: 0
OTUB2 (OTUB2A)
  OTUB2: 0
In vitro [1]
  viability at 48 h, 10 µM: 114%
In vitro [2]
  viability at 48 h, 10 µM: 85.7%
In vitro [3]
  viability at 48 h, 10 µM: 106%

## CC(C)(C)c1ccc(NC(=O)CCl)cc1 [PCM-0102622]
NUDT7
  NUDT7: 0
BSA
  BSA: 0
PCAF
  PCAF: 0
OTUB2 (OTUB2A)
  OTUB2: 0.32
In vitro [1]
  viability at 48 h, 10 µM: 38.7%
In vitro [2]
  viability at 48 h, 10 µM: 10.3%
In vitro [3]
  viability at 48 h, 10 µM: 12.6%

## Cc1ccc(C(=O)O)cc1NC(=O)CCl [PCM-0102624]
NUDT7
  NUDT7: 0
BSA
  BSA: 0
PCAF
  PCAF: 0
OTUB2 (OTUB2A)
  OTUB2: 0
In vitro [1]
  viability at 48 h, 10 µM: 108%
In vitro [2]
  viability at 48 h, 10 µM: 86.2%
In vitro [3]
  viability at 48 h, 10 µM: 102%

## O=C(CCl)N1CCCc2cc(S(=O)(=O)N3CCCC3)ccc21 [PCM-0102625]
NUDT7
  NUDT7: 0
BSA
  BSA: 0
PCAF
  PCAF: 0
OTUB2 (OTUB2A)
  OTUB2: 0
In vitro [1]
  viability at 48 h, 10 µM: 12.2%
In vitro [2]
  viability at 48 h, 10 µM: 2.5%
In vitro [3]
  viability at 48 h, 10 µM: 5.4%

## C=CC(=O)Nc1ccc(C)cn1 [PCM-0102627]
NUDT7
  NUDT7: 0
BSA
  BSA: 0
PCAF
  PCAF: 0
OTUB2 (OTUB2A)
  OTUB2: 0
In vitro [1]
  viability at 48 h, 10 µM: 84.1%
In vitro [2]
  viability at 48 h, 10 µM: 78.8%
In vitro [3]
  viability at 48 h, 10 µM: 96.7%

## Cc1ccc(S(=O)(=O)N2CCN(C(=O)CCl)CC2)c(C)c1 [PCM-0102628]
NUDT7
  NUDT7: 0
BSA
  BSA: 0
PCAF
  PCAF: 0
OTUB2 (OTUB2A)
  OTUB2: 0
In vitro [1]
  viability at 48 h, 10 µM: 82.6%
In vitro [2]
  viability at 48 h, 10 µM: 82.4%
In vitro [3]
  viability at 48 h, 10 µM: 35.6%

## C=CC(=O)N1CCOc2ccccc21 [PCM-0102629]
NUDT7
  NUDT7: 0
BSA
  BSA: 0
PCAF
  PCAF: 0
OTUB2 (OTUB2A)
  OTUB2: 0
In vitro [1]
  viability at 48 h, 10 µM: 86.1%
In vitro [2]
  viability at 48 h, 10 µM: 71.1%
In vitro [3]
  viability at 48 h, 10 µM: 80.9%

## Cc1nc(CN2CCN(C(=O)CCl)CC2)cs1 [PCM-0102630]
NUDT7
  NUDT7: 0
BSA
  BSA: 0
PCAF
  PCAF: 0
OTUB2 (OTUB2A)
  OTUB2: 0
In vitro [1]
  viability at 48 h, 10 µM: 79.3%
In vitro [2]
  viability at 48 h, 10 µM: 67.4%
In vitro [3]
  viability at 48 h, 10 µM: 92%

## C=CC(=O)N1CCN(C)CC1 [PCM-0102634]
NUDT7
  NUDT7: 0
BSA
  BSA: 0
PCAF
  PCAF: 0
OTUB2 (OTUB2A)
  OTUB2: 0
In vitro [1]
  viability at 48 h, 10 µM: 114%
In vitro [2]
  viability at 48 h, 10 µM: 131%
In vitro [3]
  viability at 48 h, 10 µM: 99.6%
